From patent US6982348B2, “Aminoethanol derivatives” (Takeda Pharmaceutical Company Limited, priority 2001, dated 2006)

Row | SMILES | melting point
1 | CC(C)(F)C(F)c1cccc(C[C@@H](NC(=O)c2cccc3c2C=CCCC3)[C@@H](O)c2ccc(F)cc2)c1 (mixture of isomers) [Example 342, N-[(1RS,2SR)-1-[3-(1,2-difluoro-2-methylpropyl)benzyl]-2-(4-fluorophenyl)-2-hydroxyethyl]-6,7-dihydro-5H-benzo[a]cycloheptene-1-carboxamide] | 102 to 104 °C
2 | CC(C)(C)Cc1ccc(C[C@@H](NC(=O)c2cccc3c2C=CCCC3)[C@@H](O)c2cccc(Cl)c2)cc1 (racemic) [Example 344, N-[(1RS,2SR)-2-(3-chlorophenyl)-2-hydroxy-1-(4-neopentylbenzyl)ethyl]-6,7-dihydro-5H-benzo[a]cycloheptene-1-carboxamide] | 147 to 149 °C
3 | CC(C)(C)Cc1ccc(C[C@@H](NC(=O)c2ccc(F)c3ccccc23)[C@@H](O)c2cccc(Cl)c2)cc1 (racemic) [Example 345, 4-fluoro-N-[(1RS,2SR)-2-(3-chlorophenyl)-2-hydroxy-1-(4-neopentylbenzyl)ethyl]naphthalene-1-carboxamide] | 150 to 151 °C
4 | CC(C)(C)Cc1ccc(C[C@@H](NC(=O)c2cccc3c(Cl)cccc23)[C@@H](O)c2cccc(Cl)c2)cc1 (racemic) [Example 346, 5-chloro-N-[(1RS,2SR)-2-(3-chlorophenyl)-2-hydroxy-1-(4-neopentylbenzyl)ethyl]naphthalene-1-carboxamide] | 168 to 169 °C
5 | O=C(N[C@H](Cc1cccc(C(=O)C(F)(F)C(F)F)c1)[C@@H](O)c1ccc(F)cc1)c1ccc(F)c2ccccc12 (racemic) [Example 348, 4-fluoro-N-[(1RS,2SR)-2-(4-fluorophenyl)-2-hydroxy-1-[3-(2,2,3,3-tetrafluoropropionyl)benzyl]ethyl]naphthalene-1-carboxamide] | 160 to 162 °C
6 | C=C(c1cccc(C[C@@H](NC(=O)c2ccc(F)c3ccccc23)[C@@H](O)c2ccc(F)cc2)c1)C(F)(F)C(F)F (racemic) [Example 349, 4-fluoro-N-[(1RS,2SR)-2-(4-fluorophenyl)-2-hydroxy-1-[3-[1-(1,1,2,2-tetrafluoroethyl)vinyl]benzyl]ethyl]naphthalene-1-carboxamide] | 162 to 163 °C
7 | O=C(N[C@H](Cc1cccc(C(=O)C(F)(F)C(F)F)c1)[C@@H](O)c1ccc(F)cc1)c1cccc2c(Cl)cccc12 (racemic) [Example 350, 5-chloro-N-[(1RS,2SR)-2-(4-fluorophenyl)-2-hydroxy-1-[3-(2,2,3,3-tetrafluoropropionyl)benzyl]ethyl]naphthalene-1-carboxamide] | 154 to 155 °C
8 | CC(C)C(F)(F)Cc1ccc(C[C@@H](NC(=O)OC(C)(C)C)[C@@H](O)c2cccc(Cl)c2)cc1 (racemic) [Example 352, tert-butyl N-[(1RS,2SR)-2-(3-chlorophenyl)-1-[4-(2,2-difluoro-3-methylbutyl)benzyl]-2-hydroxyethyl]carbamate] | 139 to 141 °C
9 | CC(C)C(F)(F)Cc1ccc(C[C@@H](NC(=O)c2ccc(F)c3ccccc23)[C@@H](O)c2cccc(Cl)c2)cc1 (racemic) [Example 353, N-[(1RS,2SR)-2-(3-chlorophenyl)-1-[4-(2,2-difluoro-3-methylbutyl)benzyl]-2-hydroxyethyl]-4-fluoronaphthalene-1-carboxamide] | 181 to 182 °C
10 | CC(C)(C)OC(=O)N[C@H](Cc1cccc(OC(F)(F)C(F)F)c1)[C@@H](O)c1csc(-c2ccccc2)n1 (racemic) [Example 361, tert-butyl (1RS,2RS)-2-hydroxy-2-(2-phenyl-1,3-thiazol-4-yl)-1-[3-(1,1,2,2-tetrafluoroethoxy)benzyl]ethylcarbamate] | 127 to 128 °C
11 | CC(C)(C)c1ccc(C[C@@H](NC(=O)c2cccc3c(F)cccc23)[C@@H](O)c2ccc(F)cc2)cc1 (racemic) [Example 364, N-[(1RS,2SR)-1-(4-tert-butylbenzyl)-2-(4-fluorophenyl)-2-hydroxyethyl]-5-fluoro-1-naphthamide] | 148 to 149 °C
12 | CC(C)(C)COc1cccc(C[C@@H](NC(=O)c2ccc(F)c3ccccc23)[C@@H](O)c2cccc(Cl)c2)c1 (racemic) [Example 366, N-[(1RS,2SR)-1-[3-(neopentyloxy)benzyl]-2-(3-chlorophenyl)-2-hydroxyethyl]-4-fluoro-1-naphthamide] | 165 to 166 °C
13 | CC(C)(C)COc1cccc(C[C@@H](NC(=O)c2cccc3c(Cl)cccc23)[C@@H](O)c2cccc(Cl)c2)c1 (racemic) [Example 367, N-[(1RS,2SR)-1-[3-(neopentyloxy)benzyl]-2-(3-chlorophenyl)-2-hydroxyethyl]-5-chloro-1-naphthamide] | 142 to 143 °C
14 | CC(C)(C)COc1cccc(C[C@@H](NC(=O)c2cccc3c2C=CCCC3)[C@@H](O)c2cccc(Cl)c2)c1 (racemic) [Example 368, N-[(1RS,2SR)-1-[3-(neopentyloxy)benzyl]-2-(3-chlorophenyl)-2-hydroxyethyl]-6,7-dihydro-5H-benzo[a]cycloheptene-1-carboxamide] | 128 to 129 °C
15 | CC(C)(C)OC(=O)N[C@H](Cc1ccc(CC(F)(F)C(F)(F)F)cc1)[C@@H](O)c1cccc(Cl)c1 (racemic) [Example 372, tert-butyl (1RS,2SR)-2-(3-chlorophenyl)-2-hydroxy-1-[4-(2,2,3,3,3-pentafluoropropyl)benzyl]ethylcarbamate] | 156 to 157 °C
16 | O=C(N[C@H](Cc1ccc(CC(F)(F)C(F)(F)F)cc1)[C@@H](O)c1cccc(Cl)c1)c1ccc(F)c2ccccc12 (racemic) [Example 373, N-[(1RS,2SR)-1-[4-(2,2,3,3,3-pentafluoropropyl)benzyl]-2-(3-chlorophenyl)-2-hydroxyethyl]-4-fluoro-1-naphthamide] | 191 to 192 °C

Further lines, results first:

Row | melting point | SMILES
17 | 148 to 149 °C | CC(C)(C)OC(=O)N[C@H](Cc1cccc(C(F)C(C)(C)F)c1)[C@@H](O)c1ccc(F)cc1 (mixture of isomers) [Example 341, tert-butyl N-[(1RS,2SR)-1-[3-(1,2-difluoro-2-methylpropyl)benzyl]-2-(4-fluorophenyl)-2-hydroxyethyl]carbamate]
18 | 170 to 171 °C | CC(C)C(F)(F)Cc1ccc(C[C@@H](NC(=O)c2cccc3c(Cl)cccc23)[C@@H](O)c2cccc(Cl)c2)cc1 (racemic) [Example 354, 5-chloro-N-[(1RS,2SR)-2-(3-chlorophenyl)-1-[4-(2,2-difluoro-3-methylbutyl)benzyl]-2-hydroxyethyl]naphthalene-1-carboxamide]
19 | 149 to 150 °C | CC(C)(C)c1ccc(C[C@@H](NC(=O)c2ccc(F)c3ccccc23)[C@@H](O)c2ccc(F)cc2)cc1 (racemic) [Example 357, N-[(1RS,2SR)-1-(4-tert-butylbenzyl)-2-(4-fluorophenyl)-2-hydroxyethyl]-4-fluoro-1-naphthamide]
20 | 182 to 183 °C | CC(F)(F)c1cccc(C[C@@H](NC(=O)c2ccc(F)c3ccccc23)[C@@H](O)c2ccc(F)cc2)c1 (racemic) [Example 359, N-[(1RS,2SR)-1-[3-(1,1-difluoroethyl)benzyl]-2-(4-fluorophenyl)-2-hydroxyethyl]-4-fluoro-1-naphthamide]
21 | 170 to 171 °C | CC(F)(F)c1cccc(C[C@@H](NC(=O)c2cccc3c2C=CCCC3)[C@@H](O)c2ccc(F)cc2)c1 (racemic) [Example 360, N-[(1RS,2SR)-1-[3-(1,1-difluoroethyl)benzyl]-2-(4-fluorophenyl)-2-hydroxyethyl]-6,7-dihydro-5H-benzo[a]cycloheptene-1-carboxamide]
22 | 148 to 150 °C | O=C(N[C@H](Cc1cccc(OC(F)(F)C(F)F)c1)[C@@H](O)c1csc(-c2ccccc2)n1)c1ccc(F)c2ccccc12 (racemic) [Example 362, 4-fluoro-N-{(1RS,2RS)-2-hydroxy-2-(2-phenyl-1,3-thiazol-4-yl)-1-[3-(1,1,2,2-tetrafluoroethoxy)benzyl]ethyl}-1-naphthamide]
23 | 76 to 78 °C | CC(C)(C)c1cccc(C[C@@H](NC(=O)c2ccc(F)c3ccccc23)[C@@H](O)c2cccc(Cl)c2)c1 (racemic) [Example 369, N-[(1RS,2SR)-1-[3-(tert-butyl)benzyl]-2-(3-chlorophenyl)-2-hydroxyethyl]-4-fluoro-1-naphthamide]
24 | 91 to 93 °C | CC(C)(C)c1cccc(C[C@@H](NC(=O)c2cccc3c(Cl)cccc23)[C@@H](O)c2cccc(Cl)c2)c1 (racemic) [Example 371, N-[(1RS,2SR)-1-[3-(tert-butyl)benzyl]-2-(3-chlorophenyl)-2-hydroxyethyl]-5-chloro-1-naphthamide]
25 | 176 to 177 °C | O=C(N[C@H](Cc1ccc(CC(F)(F)C(F)(F)F)cc1)[C@@H](O)c1cccc(Cl)c1)c1cccc2c1C=CCCC2 (racemic) [Example 374, N-[(1RS,2SR)-1-[4-(2,2,3,3,3-pentafluoropropyl)benzyl]-2-(3-chlorophenyl)-2-hydroxyethyl]-6,7-dihydro-5H-benzo[a]cycloheptene-1-carboxamide]
26 | 216 to 217 °C | O=C(N[C@H](Cc1ccc(CC(F)(F)C(F)(F)F)cc1)[C@@H](O)c1cccc(Cl)c1)c1cccc2c(Cl)cccc12 (racemic) [Example 375, 5-chloro-N-{(1RS,2SR)-2-(3-chlorophenyl)-2-hydroxy-1-[4-(2,2,3,3,3-pentafluoropropyl)benzyl]ethyl}-1-naphthamide]
27 | 149 to 150 °C | CC1(C)COc2ccc(C[C@@H](NC(=O)c3cccc4c3C=CCCC4)[C@@H](O)c3cccc(Cl)c3)cc21 (racemic) [Example 377, N-{(1RS,2SR)-2-(3-chlorophenyl)-1-[(3,3-dimethyl-2,3-dihydro-1-benzofuran-5-yl)methyl]-2-hydroxyethyl}-6,7-dihydro-5H-benzo[a]cycloheptene-1-carboxamide]
28 | 191 to 192 °C | CC1(C)COc2ccc(C[C@@H](NC(=O)c3cccc4c(Cl)cccc34)[C@@H](O)c3cccc(Cl)c3)cc21 (racemic) [Example 378, 5-chloro-N-{(1RS,2SR)-2-(3-chlorophenyl)-1-[(3,3-dimethyl-2,3-dihydro-1-benzofuran-5-yl)methyl]-2-hydroxyethyl}-1-naphthamide]
